Test results taken from patent publication US10125098B2, “Therapeutic compounds and methods of use thereof” (GENENTECH, INC., priority 2014, dated 2018).
Like-named read-outs stand apart in the source and are kept apart here.

How the values were obtained:
hNav1.7 = molecular target: T1, hNav1.7 (Homo sapiens, UniProt Q15858); test: Tritiated compound binding (LBA) to membranes from cells expressing hNav1.7 and the β1 subunit, competitive binding; settings: competitive binding vs 100 pM [3H]compound, 18 h, room temperature, membranes with hNav1.7 and β1 subunit
T1 construct: expressed in transfected cells
Summary of the method: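 Competitive displacement of 100 pM [3H]compound (tritiated methyl analogue of formula (I)) from hNav1.7/β1 membranes, 18 h at room temperature in NaCl/Tris pH 7.4 buffer containing 0.01% BSA. 1 μM unlabeled compound set non-specific binding. Bound label quantified by scintillation after filtration; 4-parameter fit gave IC50.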

human NaV1.7 = molecular target: T2, human NaV1.7 (Homo sapiens, UniProt Q15858); test: Patch voltage clamp electrophysiology assay (EP), NaV1.7; format: cell-based; settings: HEK-293 cells stably expressing NaV1.7 with β1 subunit; whole-cell patch clamp, membrane potential −60 mV (inactivated state)
T2 construct: permanently transfected with an expression vector containing the full-length cDNA coding for the desired human sodium channel α-subunit; expressed in transfected cells; host or cells: HEK-293
Summary of the method: (§1)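 Percent block is the drop in sodium current after compound wash-on, measured by a test pulse following 20 ms at −150 mV from a −60 mV inactivating holding potential.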

NaV1.5 = molecular target: T3, NaV1.5 (Homo sapiens, UniProt Q14524); test: Patch voltage clamp electrophysiology assay (EP), NaV1.5; format: cell-based
T3 construct: permanently transfected with an expression vector containing the full-length cDNA coding for the desired human sodium channel α-subunit; expressed in transfected cells; host or cells: HEK-293
Summary of the method: as §1

[1] = HEK-293 cells stably expressing NaV1.5 with β1 subunit, whole-cell patch clamp, membrane potential −60 mV (inactivated state), read-out: Nav1.5
[2] = human, HEK-293 cells stably expressing human NaV1.5 with β1 subunit, pH 7.4, HEK-293 cells stably expressing NaV1.5 with β1 subunit, whole-cell patch clamp, membrane potential −60 mV (inactivated state)

T1 sequence (Q15858 1-1977 isoform Q15858-3): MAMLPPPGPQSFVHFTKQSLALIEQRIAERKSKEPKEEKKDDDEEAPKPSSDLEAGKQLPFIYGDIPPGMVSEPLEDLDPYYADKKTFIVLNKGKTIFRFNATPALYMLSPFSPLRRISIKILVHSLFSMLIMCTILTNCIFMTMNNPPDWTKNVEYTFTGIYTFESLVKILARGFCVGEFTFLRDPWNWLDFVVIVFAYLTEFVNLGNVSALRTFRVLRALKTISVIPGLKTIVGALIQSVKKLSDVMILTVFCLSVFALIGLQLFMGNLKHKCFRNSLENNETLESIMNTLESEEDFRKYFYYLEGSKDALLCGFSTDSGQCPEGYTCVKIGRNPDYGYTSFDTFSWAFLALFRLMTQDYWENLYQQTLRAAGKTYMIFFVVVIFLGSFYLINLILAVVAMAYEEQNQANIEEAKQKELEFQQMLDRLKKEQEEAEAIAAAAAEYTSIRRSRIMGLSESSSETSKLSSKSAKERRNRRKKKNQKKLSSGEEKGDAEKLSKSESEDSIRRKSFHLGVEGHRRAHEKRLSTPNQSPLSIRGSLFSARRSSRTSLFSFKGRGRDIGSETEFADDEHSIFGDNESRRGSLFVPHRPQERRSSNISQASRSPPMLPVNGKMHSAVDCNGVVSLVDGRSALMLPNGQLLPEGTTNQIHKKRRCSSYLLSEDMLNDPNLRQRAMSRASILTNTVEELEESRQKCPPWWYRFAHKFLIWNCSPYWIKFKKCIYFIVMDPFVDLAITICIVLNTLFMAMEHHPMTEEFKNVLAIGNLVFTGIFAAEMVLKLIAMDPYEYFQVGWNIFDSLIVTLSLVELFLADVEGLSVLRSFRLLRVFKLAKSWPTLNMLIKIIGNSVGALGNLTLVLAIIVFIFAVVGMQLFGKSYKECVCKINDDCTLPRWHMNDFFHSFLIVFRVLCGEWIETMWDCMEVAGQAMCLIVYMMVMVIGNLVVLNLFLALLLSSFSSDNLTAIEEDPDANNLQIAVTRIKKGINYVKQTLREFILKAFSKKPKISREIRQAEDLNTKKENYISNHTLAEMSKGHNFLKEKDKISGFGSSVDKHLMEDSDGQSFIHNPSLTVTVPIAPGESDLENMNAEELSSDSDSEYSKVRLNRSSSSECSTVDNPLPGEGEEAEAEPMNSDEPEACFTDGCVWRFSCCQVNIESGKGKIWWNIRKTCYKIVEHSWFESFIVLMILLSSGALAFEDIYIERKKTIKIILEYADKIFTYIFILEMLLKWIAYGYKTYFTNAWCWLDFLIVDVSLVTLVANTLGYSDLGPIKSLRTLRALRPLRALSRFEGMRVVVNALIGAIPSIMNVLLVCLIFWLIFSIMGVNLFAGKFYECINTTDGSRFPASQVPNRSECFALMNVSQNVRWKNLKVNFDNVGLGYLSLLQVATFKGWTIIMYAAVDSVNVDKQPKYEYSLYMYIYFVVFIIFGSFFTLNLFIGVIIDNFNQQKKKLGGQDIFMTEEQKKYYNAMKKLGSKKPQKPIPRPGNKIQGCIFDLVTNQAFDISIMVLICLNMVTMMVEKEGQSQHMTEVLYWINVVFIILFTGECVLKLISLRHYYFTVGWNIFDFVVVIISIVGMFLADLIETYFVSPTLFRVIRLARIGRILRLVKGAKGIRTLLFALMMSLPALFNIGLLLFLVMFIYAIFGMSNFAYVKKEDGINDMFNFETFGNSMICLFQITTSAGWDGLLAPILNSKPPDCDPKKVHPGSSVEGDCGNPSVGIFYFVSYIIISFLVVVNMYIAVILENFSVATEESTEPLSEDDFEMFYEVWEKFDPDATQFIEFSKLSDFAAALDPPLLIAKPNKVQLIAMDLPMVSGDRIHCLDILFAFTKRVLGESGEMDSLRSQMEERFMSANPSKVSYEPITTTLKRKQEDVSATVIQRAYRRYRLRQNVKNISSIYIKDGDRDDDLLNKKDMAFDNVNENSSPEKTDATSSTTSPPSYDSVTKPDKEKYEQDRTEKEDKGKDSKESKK
T1 sequence (Q07699 19-218 partner): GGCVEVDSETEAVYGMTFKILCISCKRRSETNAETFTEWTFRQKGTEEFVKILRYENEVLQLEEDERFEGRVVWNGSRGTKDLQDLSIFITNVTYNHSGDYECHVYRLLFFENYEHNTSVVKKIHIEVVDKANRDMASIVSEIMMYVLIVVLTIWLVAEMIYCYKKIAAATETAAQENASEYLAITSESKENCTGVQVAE
T2 sequence (Q15858 1-1977 isoform Q15858-3): as the sequence (Q15858 1-1977 isoform Q15858-3) above
T2 sequence (Q07699 19-218 partner): as the sequence (Q07699 19-218 partner) above
T3 sequence (Q14524 whole entry): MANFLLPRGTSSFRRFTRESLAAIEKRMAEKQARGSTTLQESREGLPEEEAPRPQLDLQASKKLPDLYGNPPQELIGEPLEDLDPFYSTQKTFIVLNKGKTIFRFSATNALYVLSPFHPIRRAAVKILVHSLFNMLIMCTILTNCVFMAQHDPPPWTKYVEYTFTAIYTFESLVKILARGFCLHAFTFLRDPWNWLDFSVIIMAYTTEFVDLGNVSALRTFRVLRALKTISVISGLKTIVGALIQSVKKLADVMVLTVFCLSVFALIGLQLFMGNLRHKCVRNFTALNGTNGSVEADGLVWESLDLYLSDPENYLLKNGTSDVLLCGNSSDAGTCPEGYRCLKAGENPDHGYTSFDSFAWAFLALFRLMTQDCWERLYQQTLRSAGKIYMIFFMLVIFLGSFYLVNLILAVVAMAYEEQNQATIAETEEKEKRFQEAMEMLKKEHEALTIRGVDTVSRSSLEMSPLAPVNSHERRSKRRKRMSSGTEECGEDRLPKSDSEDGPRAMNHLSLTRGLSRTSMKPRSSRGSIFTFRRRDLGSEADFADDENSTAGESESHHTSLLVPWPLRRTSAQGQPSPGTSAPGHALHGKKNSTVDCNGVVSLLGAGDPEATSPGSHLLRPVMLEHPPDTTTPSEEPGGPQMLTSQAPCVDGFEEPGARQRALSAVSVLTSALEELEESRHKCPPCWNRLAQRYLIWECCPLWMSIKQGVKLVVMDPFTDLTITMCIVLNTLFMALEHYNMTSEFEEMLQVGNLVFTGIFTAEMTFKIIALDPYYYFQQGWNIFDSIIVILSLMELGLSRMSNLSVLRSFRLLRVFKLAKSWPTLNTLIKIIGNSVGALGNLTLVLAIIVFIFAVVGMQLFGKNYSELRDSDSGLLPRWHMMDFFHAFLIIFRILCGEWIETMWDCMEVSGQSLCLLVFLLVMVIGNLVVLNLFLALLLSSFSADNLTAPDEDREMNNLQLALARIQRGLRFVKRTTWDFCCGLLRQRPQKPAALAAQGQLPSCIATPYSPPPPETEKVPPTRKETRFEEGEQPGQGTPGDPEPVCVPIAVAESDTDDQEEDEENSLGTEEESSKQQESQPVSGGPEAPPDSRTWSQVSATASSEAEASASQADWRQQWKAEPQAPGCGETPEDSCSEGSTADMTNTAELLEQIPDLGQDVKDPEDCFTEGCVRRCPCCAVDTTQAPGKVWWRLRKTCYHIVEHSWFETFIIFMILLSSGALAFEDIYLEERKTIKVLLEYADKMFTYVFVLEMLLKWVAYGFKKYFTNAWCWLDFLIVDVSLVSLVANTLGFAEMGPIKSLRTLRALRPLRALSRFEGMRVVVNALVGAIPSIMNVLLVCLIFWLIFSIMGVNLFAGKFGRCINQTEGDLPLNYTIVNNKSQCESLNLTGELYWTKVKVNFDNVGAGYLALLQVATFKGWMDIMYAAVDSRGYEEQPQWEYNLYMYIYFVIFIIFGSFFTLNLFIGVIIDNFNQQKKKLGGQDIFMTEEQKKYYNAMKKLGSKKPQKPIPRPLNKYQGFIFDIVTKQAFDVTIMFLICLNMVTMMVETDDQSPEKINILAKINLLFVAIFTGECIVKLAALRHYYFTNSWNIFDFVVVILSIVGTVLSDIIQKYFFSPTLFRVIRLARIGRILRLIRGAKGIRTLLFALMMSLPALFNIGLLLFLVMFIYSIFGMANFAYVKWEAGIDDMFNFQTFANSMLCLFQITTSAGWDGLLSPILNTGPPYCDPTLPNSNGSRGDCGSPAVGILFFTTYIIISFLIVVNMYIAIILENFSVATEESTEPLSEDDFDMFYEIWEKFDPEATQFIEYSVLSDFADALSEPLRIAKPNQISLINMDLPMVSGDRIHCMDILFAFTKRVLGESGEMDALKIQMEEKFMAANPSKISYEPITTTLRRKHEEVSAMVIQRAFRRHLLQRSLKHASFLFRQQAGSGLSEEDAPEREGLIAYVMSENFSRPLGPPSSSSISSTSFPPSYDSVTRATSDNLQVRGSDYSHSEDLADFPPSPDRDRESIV

## O=C(O)[C@@H]1C[C@@H](F)CN1C(=O)c1cc(C2CC2)c(OCC2CCN(Cc3cc(Cl)cc(OC(F)(F)F)c3)CC2)cc1F [Example 105, (2S,4R)-1-(4-((1-(3-chloro-5-(trifluoromethoxy)benzyl)piperidin-4-yl)methoxy)-5-cyclopropyl-2-fluorobenzoyl)-4-fluoropyrrolidine-2-carboxylic acid]
hNav1.7
  IC50: 0.037 µM
Human NaV1.7
  IC50: 0.22 µM
NaV1.5; [1]
  IC50: 22 µM

## O=C(O)[C@@H]1C[C@@H](F)CN1C(=O)c1cc(C2CC2)c(OCC2(F)CCN(Cc3cc(C(F)(F)F)ccc3Cl)CC2)cc1F [Example 106, (2S,4R)-1-(4-((1-(2-chloro-5-(trifluoromethyl)benzyl)-4-fluoropiperidin-4-yl)methoxy)-5-cyclopropyl-2-fluorobenzoyl)-4-fluoropyrrolidine-2-carboxylic acid]
hNav1.7
  IC50: 0.027 µM
Human NaV1.7
  IC50: 0.13 µM
NaV1.5; [1]
  IC50: 21 µM

## CC(C)Nc1ccc(F)cc1CN1CCC(COc2cc(F)c(C(=O)N3C[C@H](F)C[C@H]3C(=O)O)cc2C2CC2)CC1 [Example 107, (2S,4R)-1-(5-cyclopropyl-2-fluoro-4-((1-(5-fluoro-2-(isopropylamino)benzyl)-piperidin-4-yl)methoxy)benzoyl)-4-fluoropyrrolidine-2-carboxylic acid]
hNav1.7
  IC50: 0.039 µM
Human NaV1.7
  IC50: 0.73 µM
NaV1.5; [1]
  IC50: 12 µM

## O=C(O)[C@@H]1C[C@@H](F)CN1C(=O)c1cc(C2CC2)c(OCC2CCN(Cc3cc(F)c(Cl)cc3Cl)CC2)cc1F [Example 108, (2S,4R)-1-(5-cyclopropyl-4-((1-(2,4-dichloro-5-fluorobenzyl)piperidin-4-yl)methoxy)-2-fluorobenzoyl)-4-fluoropyrrolidine-2-carboxylic acid]
hNav1.7
  IC50: 0.017 µM
Human NaV1.7
  IC50: 0.22 µM
NaV1.5; [1]
  IC50: 9.6 µM

## CC(C)Oc1ncc(CN2CCC(F)(COc3cc(F)c(C(=O)N4C[C@H](F)C[C@H]4C(=O)O)cc3C3CC3)CC2)cc1Cl [Example 109, (2S,4R)-1-(4-((1-((5-chloro-6-isopropoxypyridin-3-yl)methyl)-4-fluoropiperidin-4-yl)methoxy)-5-cyclopropyl-2-fluorobenzoyl)-4-fluoropyrrolidine-2-carboxylic acid]
hNav1.7
  IC50: 0.051 µM
Human NaV1.7
  IC50: 0.89 µM
NaV1.5; [2]
  IC50: ≥ 30 µM

## O=C(NC(C(=O)O)C1CCC1)c1cc(C2CC2)c(OCC2(F)CCN(Cc3cc(C(F)(F)F)ccc3Cl)CC2)cc1F (stereo not drawn) [Example 110, 2-(4-((1-(2-chloro-5-(trifluoromethyl)benzyl)-4-fluoropiperidin-4-yl)methoxy)-5-cyclopropyl-2-fluorobenzamido)-2-cyclobutyl acetic acid]
hNav1.7
  IC50: 0.37 µM
Human NaV1.7
  IC50: 10 µM
NaV1.5; [1]
  IC50: 10 µM

## C[C@@H]1[C@@H](C(=O)O)N(C(=O)c2cc(C3CC3)c(OCC3(F)CCN(Cc4cc(C(F)(F)F)ccc4Cl)CC3)cc2F)C[C@@H]1F [Example 111, (2S,3R,4R)-1-(4-((1-(2-chloro-5-(trifluoromethyl)benzyl)-4-fluoropiperidin-4-yl)methoxy)-5-cyclopropyl-2-fluorobenzoyl)-4-fluoro-3-methylpyrrolidine-2-carboxylic acid]
hNav1.7
  IC50: 0.036 µM
Human NaV1.7
  IC50: 0.23 µM
NaV1.5; [1]
  IC50: 14 µM

## O=C(O)[C@@H]1CCCN1C(=O)c1cc(C2CC2)c(OC2CCN(Cc3cc(Cl)cc(Cl)c3)CC2)cc1F [Example 112, (S)-1-(5-cyclopropyl-4-(1-(3,5-dichlorobenzyl)piperidin-4-yloxy)-2-fluorobenzoyl)pyrrolidine-2-carboxylic acid]
hNav1.7
  IC50: 0.52 µM
Human NaV1.7
  IC50: 2 µM
NaV1.5; [2]
  IC50: ≥ 30 µM

## O=C(O)[C@@H]1CCCN1C(=O)c1cc(C2CC2)c(CN2CC(Oc3cc(Cl)cc(Cl)c3)C2)cc1F [Example 122, (5-cyclopropyl-4-((3-(3,5-dichlorophenoxy)azetidin-1-yl)methyl)-2-fluorobenzoyl)-L-proline]
hNav1.7
  IC50: 0.43 µM
Human NaV1.7
  IC50: 2 µM
NaV1.5; [2]
  IC50: ≥ 30 µM

## O=C(O)[C@@H]1CC2(CC2)CN1C(=O)c1cc(C2CC2)c(OCC2(F)CCN(Cc3ccc(C(F)(F)F)cc3Cl)CC2)cc1F [Example 124, (S)-5-(4-((1-(2-chloro-4-(trifluoromethyl)benzyl)-4-fluoropiperidin-4-yl)methoxy)-5-cyclopropyl-2-fluorobenzoyl)-5-azaspiro[2.4]heptane-6-carboxylic acid]
hNav1.7
  IC50: 0.4 µM
Human NaV1.7
  IC50: 1.5 µM
NaV1.5
  IC50: 12 µM

## O=C(O)[C@@H]1C[C@@H](F)CN1C(=O)c1cc(C2CC2)c(OCC2(F)CCN(Cc3ccc(C(F)(F)F)cc3Cl)CC2)cc1F [Example 127, (2S, 4R)-1-(4-((1-(2-chloro-4-(trifluoromethyl)benzyl)-4-fluoropiperidin-4-yl)methoxy)-5-cyclopropyl-2-fluorobenzoyl)-4-fluoropyrrolidine-2-carboxylic acid]
hNav1.7
  IC50: 0.12 µM
Human NaV1.7
  IC50: 0.4 µM
NaV1.5; [1]
  IC50: 13 µM

## O=C(O)[C@@H]1C[C@@H](F)CN1C(=O)c1cc(C2CC2)c(OCC2(F)CCN(Cc3ccc(F)c(Cl)c3)CC2)cc1F [Example 128, (2S,4R)-1-(4-((1-(3-chloro-4-fluorobenzyl)-4-fluoropiperidin-4-yl)methoxy)-5-cyclopropyl-2-fluorobenzoyl)-4-fluoropyrrolidine-2-carboxylic acid]
hNav1.7
  IC50: 0.087 µM
Human NaV1.7
  IC50: 0.71 µM
NaV1.5; [2]
  IC50: ≥ 30 µM

## CC(c1cc(Cl)cc(Cl)c1)N1CCC(F)(COc2cc(F)c(C(=O)N3C[C@H](F)C[C@H]3C(=O)O)cc2C2CC2)CC1 (stereo partly drawn) [Example 129, (2S,4R)-1-(5-cyclopropyl-4-((1-(1-(3,5-dichlorophenyl)ethyl)-4-fluoropiperidin-4-yl)methoxy)-2-fluorobenzoyl)-4-fluoropyrrolidine-2-carboxylic acid]
hNav1.7
  IC50: 0.022 µM
Human NaV1.7
  IC50: 0.16 µM
NaV1.5; [1]
  IC50: 9.4 µM

## COC[C@H](c1cc(Cl)cc(Cl)c1)N1CCC(COc2cc(F)c(C(=O)N3C[C@H](F)C[C@H]3C(=O)O)cc2C2CC2)CC1 [Example 130, (2S,4R)-1-(5-cyclopropyl-4-((1-((S)-1-(3,5-dichlorophenyl)-2-methoxyethyl)piperidin-4-yl)methoxy)-2-fluorobenzoyl)-4-fluoropyrrolidine-2-carboxylic acid]
hNav1.7
  IC50: 0.027 µM
Human NaV1.7
  IC50: 0.16 µM
NaV1.5; [1]
  IC50: 14 µM

## COC[C@@H](c1cc(Cl)cc(Cl)c1)N1CCC(COc2cc(F)c(C(=O)N3C[C@H](F)C[C@H]3C(=O)O)cc2C2CC2)CC1 [Example 131, (2S,4R)-1-(5-cyclopropyl-4-((1-((R)-1-(3,5-dichlorophenyl)-2-methoxyethyl)piperidin-4-yl)methoxy)-2-fluorobenzoyl)-4-fluoropyrrolidine-2-carboxylic acid]
hNav1.7
  IC50: 0.028 µM
Human NaV1.7
  IC50: 0.25 µM
NaV1.5; [1]
  IC50: 18 µM

## O=C(O)[C@@H]1COC(=O)N1C(=O)c1cc(C2CC2)c(OCC23CC4CC(CC(C4)C2)C3)cc1F [Example 133, (S)-3-(4-(adamantan-1-ylmethoxy)-5-cyclopropyl-2-fluorobenzoyl)-2-oxooxazolidine-4-carboxylic acid]
hNav1.7
  IC50: 1.4 µM
Human NaV1.7
  IC50: 18 µM
NaV1.5; [1]
  IC50: 9.4 µM

## O=C(O)[C@@H]1CCCN1C(=O)c1cc(C2CC2)c(COc2cc(Cl)cc(Cl)c2)s1 [Example 134, (S)-1-(4-cyclopropyl-5-((3,5-dichlorophenoxy)methyl)thiophene-2-carbonyl)pyrrolidine-2-carboxylic acid]
hNav1.7
  IC50: 0.072 µM
Human NaV1.7
  IC50: 0.63 µM
NaV1.5; [1]
  IC50: 7.1 µM

## C[C@]1(COc2cc(F)c(C(=O)N3CCC[C@H]3C(=O)O)cc2C2CC2)CCN(c2cc(C(F)(F)F)c(Cl)cn2)C1 [Example 135, (S)-1-(4-(((S)-1-(5-chloro-4-(trifluoromethyl)pyridin-2-yl)-3-methylpyrrolidin-3-yl)methoxy)-5-cyclopropyl-2-fluorobenzoyl)pyrrolidine-2-carboxylic acid]
hNav1.7
  IC50: 0.39 µM
Human NaV1.7
  IC50: 2.6 µM
NaV1.5; [2]
  IC50: ≥ 30 µM

## C[C@@]1(COc2cc(F)c(C(=O)N3CCC[C@H]3C(=O)O)cc2C2CC2)CCN(c2cc(C(F)(F)F)c(Cl)cn2)C1 [Example 136, (S)-1-(4-(((R)-1-(5-chloro-4-(trifluoromethyl)pyridin-2-yl)-3-methylpyrrolidin-3-yl)methoxy)-5-cyclopropyl-2-fluorobenzoyl)pyrrolidine-2-carboxylic acid]
hNav1.7
  IC50: 0.11 µM
Human NaV1.7
  IC50: 1.1 µM
NaV1.5; [2]
  IC50: ≥ 30 µM

## O=C(O)[C@@H]1CCCN1C(=O)c1cc(C2CC2)c(OC2CN(C(c3ccccc3)c3ccccc3)C2)cc1F [Example 141, (S)-1-(4-(1-benzhydrylazetidin-3-yloxy)-5-cyclopropyl-2-fluorobenzoyl)pyrrolidine-2-carboxylic acid]
hNav1.7
  IC50: 0.49 µM
Human NaV1.7
  IC50: 6.1 µM
NaV1.5; [2]
  IC50: ≥ 30 µM

## C[C@@H]1SCN(C(=O)c2cc(C3CC3)c(OCC34CC5CC(CC(C5)C3)C4)cc2F)[C@@H]1C(=O)O [Example 142a, (4R,5S)-3-[4-(1-adamantylmethoxy)-5-cyclopropyl-2-fluoro-benzoyl]-5-methyl-thiazolidine-4-carboxylic acid]
hNav1.7
  IC50: 0.25 µM
Human NaV1.7
  IC50: 1.5 µM
NaV1.5; [1]
  IC50: 17 µM

## C[C@@H]1SCN(C(=O)c2cc(C3CC3)c(OCC34CC5CC(CC(C5)C3)C4)cc2F)[C@H]1C(=O)O [Example 142b, (4S,5S)-3-[4-(1-adamantylmethoxy)-5-cyclopropyl-2-fluoro-benzoyl]-5-methyl-thiazolidine-4-carboxylic acid]
hNav1.7
  IC50: 0.76 µM
Human NaV1.7
  IC50: 3 µM
NaV1.5; [1]
  IC50: 15 µM
